Assay results published in publication PMC5895817, “A Bowman-Birk type chymotrypsin inhibitor peptide from the amphibian, Hylarana erythraea” (Scientific Reports, 2018).
Entries after “also recorded” stand apart in the source; their conditions may differ.

Legend:
[1] = target: T1, human 20 S proteasome (Homo sapiens, UniProt P28074); experiment: Human 20 S proteasome inhibition (chymotrypsin-like activity); type: biochemical; details: chymotrypsin-like activity of human 20 S proteasome (7 nM working solution); substrate Suc-Leu-Leu-Val-Tyr-AMC; 50 mM HEPES, 0.035% SDS, pH 7.5; pre-incubation 15 min, 37 °C; Morrison equation; duplicate, repeated three times
T1 construct: purchased Biochem, Boston, MA, USA
Procedure: (§1) Phe-Pro-Arg-AMC, Succinyl-Ala-Ala-Pro-Phe-AMC and Suc-Leu-Leu-Val-Tyr-AMC (Abcam, Cambridge, UK) were used as substrates for trypsin, chymotrypsin and human 20 S proteasome respectively. 10 μl trypsin/chymotrypsin working solution (1 µg/ml) were added to the wells of a micro-titre plate containing 180 μl substrate and various inhibitor solutions. 10 μl human 20 S proteasome (Biochem, Boston, MA, USA) working solution (7 nM) in 50 mM HEPES buffer containing 0.035% SDS, pH 7.5 was added to the well of a micro-titre plate containing 180 μl substrate solution and each of various inhibitor solution. Each determination was carried out in duplicate. The rate of hydrolysis of the trypsin/chymotrypsin substrate was monitored subsequently and continuously, at 37 °C, by measuring the rate of increase of fluorescence in a FLUOstar OPTIMA multi-well plate reader (BMG Labtech, Ortenberg, Germany). For the 20 S proteasome, the rate of hydrolysis of the substrate was monitored after a pre-incubation for 15 min, at 37 °C. […] Each assay was repeated three times.

[2] = tested on: HMEC-1; experiment: MTT cell viability, normal cell line HMEC-1; type: cell-based; details: 24 h, 5 replicates, three independent experiments
Procedure: The cancer cell line H157 (ATCC-CRL-5802, ATCC, Teddington, Middlesex, UK) and PC-3 (ATCC-CRL-1435, ATCC, Teddington, Middlesex, UK) were cultured in RPMI-1640 culture medium (Invitrogen, Paisley, UK) containing 10% FBS and 1% Penicillin-Streptomycin. MCF-7 (ATCC-HTB-22, ATCC, Teddington, Middlesex, UK) was cultured in DMEM culture medium (Invitrogen, Paisley, UK) containing 10% FBS and 1% Penicillin-Streptomycin. The normal cell line HMEC-1 (ATCC-CRL-3243, ATCC, Teddington, Middlesex, UK) was cultured in MCDB131 medium (Gibco, Paisley, UK) containing 10% FBS (foetal bovine serum, obtained from Sigma-Aldrich, St. Louis, MO, USA), 1% Penicillin-Streptomycin (Invitrogen, Paisley, UK), epidermal growth factor (10 ng/mL), hydrocortisone (1 μg/mL, obtained from Sigma-Aldrich, St. Louis, MO, USA) and glutamine (10 mM). Cells were seeded into a 96-well plate and incubated for 24 h (37 °C, 5% CO2) followed by starvation using serum-free medium. Sample solutions were loaded on this plate which was further incubated for 24 h. The 3-(4,5-dimethylthiazol-2-yl)-2,5-diphenyltetrazolium bromide (MTT) solution (5 mg/ml, 10 μl/well) was utilized to form the formazan after a 4 h incubation. Cell-produced-formazan was dissolved in DMSO (100 μl/well). The absorbance was recorded by using an ELx808^TM Absorbance Microplate Reader at 570 nm (BioTek Instruments, Inc., Winooski, VT, USA). […]

[3] = tested on: horse erythrocytes; experiment: Haemolysis activity test; type: cell-based; details: 2% suspension in PBS, 1–512 μM, 37 °C, 4 h, absorbance 550 nm, 5 replicates, three independent experiments
Procedure: Completely washed horse erythrocyte (TCS Biosciences Ltd., Buckingham, UK) suspension was prepared using phosphate-buffered saline (PBS). A series of peptide solutions were incubated with a 2% suspension of red blood cells at final concentrations of 1–512 μM at 37 °C for 4 h. After the incubation, 200 μl of each supernatant was transferred into a 96-well plate and the absorbance at 550 nm was measured with a Synergy HT plate reader (BioTek Instruments, Inc., Winooski, VT, USA). The BioTek’s Gen5^TM software was used to analyse the result. (Biolise BioTek EL808, Winooski, VT, USA). All the peptide concentrations and controls had 5 replicates in single 96-well plate and three independent experiments were performed.

[4] = target: chymotrypsin (Bos taurus, UniProt P00766); experiment: Trypsin/chymotrypsin inhibition assay (Morrison): chymotrypsin; type: biochemical
Procedure: as §1

[5] = target: T2, trypsin (Bos taurus, UniProt P00760); experiment: Trypsin/chymotrypsin inhibition assay (Morrison): trypsin; type: biochemical; details: substrate Phe-Pro-Arg-AMC, 37 °C, fluorescence, Morrison equation, each determination in duplicate, assay repeated three times
T2 construct: gene PRSS1
T2 sequence (P00760 24-246): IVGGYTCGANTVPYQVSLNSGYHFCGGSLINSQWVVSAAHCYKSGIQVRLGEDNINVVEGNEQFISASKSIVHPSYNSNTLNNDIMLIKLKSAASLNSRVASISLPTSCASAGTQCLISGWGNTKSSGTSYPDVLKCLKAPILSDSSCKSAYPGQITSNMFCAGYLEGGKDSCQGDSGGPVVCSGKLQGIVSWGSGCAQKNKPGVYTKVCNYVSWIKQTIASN
Procedure: as §1

CC[C@H](C)[C@H](NC(=O)[C@@H]1CSSC[C@H](NC(=O)CNC(=O)[C@H](CCCNC(=N)N)NC(=O)[C@H](CC(C)C)NC(=O)[C@@H](NC(=O)[C@@H](N)[C@@H](C)O)C(C)C)C(=O)N[C@@H](Cc2c[nH]c3ccccc23)C(=O)N[C@@H]([C@@H](C)O)C(=O)N[C@@H](Cc2ccccc2)C(=O)N[C@@H](CO)C(=O)N[C@@H](Cc2ccccc2)C(=O)N2CCC[C@H]2C(=O)N2CCC[C@H]2C(=O)N[C@@H](CCCCN)C(=O)N2CCC[C@H]2C(=O)N1)C(N)=O [HECI, TVLRGCWTFSFPPKPCI-NH2]
Ki [1]: 8.55 ± 1.84 µM

CC[C@H](C)[C@H](NC(=O)[C@@H]1CSSC[C@H](NC(=O)CNC(=O)[C@H](CCCNC(=N)N)NC(=O)[C@H](CC(C)C)NC(=O)[C@@H](NC(=O)[C@@H](N)[C@@H](C)O)C(C)C)C(=O)N[C@@H](Cc2c[nH]c3ccccc23)C(=O)N[C@@H]([C@@H](C)O)C(=O)N[C@@H](CCCCN)C(=O)N[C@@H](CO)C(=O)N[C@@H](Cc2ccccc2)C(=O)N2CCC[C@H]2C(=O)N2CCC[C@H]2C(=O)N[C@@H](CCCCN)C(=O)N2CCC[C@H]2C(=O)N1)C(N)=O [K^9-HECI, TVLRGCWTKSFPPKPCI-NH2]
cytotoxicity / growth inhibition on normal cells HMEC-1 [2]: low degree of cytotoxicity; also recorded: low degree of inhibition; also recorded: only slight cytotoxicity on HMEC-1
haemolysis [3]: low degree of haemolytic activity; also recorded: low degree of haemolysis
Ki [4]: 13.9 ± 1.09 µM
Ki [5]: 0.79 ± 0.04 µM
